“And” between values parts separate entries of the source, which are not always exact repeats. Equal values may be shown once.
Key:
PSMA protein [1] = molecular target: T1, PSMA protein (Homo sapiens, UniProt Q04609); assay: Binding affinity of 99mTc AAPT-PCa bioconjugates in PSMA+ LNCaP cells, gamma counter; details: 99mTc bioconjugate, counts per minute, 1 h incubation, read-out: dissociation constant (KD), binding affinity
T1 construct: endogenous in cells; host or cells: LNCaP
Description: In an embodiment, FIG. 24, evaluation of binding affinity of AAPT-PCa Bioconjugate 8a in PSMA+ LNCaP cells was done, using gamma scintillation counter. The binding affinity constant of PSMA targeted conjugate, 8a, to target PSMA was determined in vitro in LNCaP cells by measuring the counts per minute for different concentrations of the ^99mTc bioconjugate 8a in triplicate.
A solution of stannous chloride dihydrate (0.80 mg, 0.003 mmol) in 0.2 M hydrochloric acid (0.8 mL) was added to a solution of sodium-α-D-glucoheptonate dihydrate (800 mg, 2.815 mmol) in nitrogen-purged water. Chelating bioconjugate 8a-g (0.001 mmol) was added to the reaction mixture while continuous nitrogen purging. The pH of the solution was adjusted to 6.8 using 0.1 N sodium hydroxide solution. After the pH adjustment nitrogen-purged water was added to achieve a total volume of 10 mL. The solution was then dispensed in 5 mL vials (1 mL/vial) under nitrogen atmosphere and lyophilized for 48 h. […]
The cells were then gently dissociated with trypsin and centrifuge to obtain a pellet. […] The cell pellet free of unbound bioconjugate was resuspended in the ice-cold FACS buffer to evaluate cell-bound radioactivity using a gamma counter. The dissociation constant Kd was calculated using graph pad prism 7.04.

PSMA protein [2] = molecular target: T1, PSMA protein; assay: Binding affinity of fluorescent conjugates in LNCaP cells by flow cytometry (FACS); details: mean fluorescence intensity, triplicate, read-out: dissociation constant (KD)
Description: In an embodiment in FIG. 15, Evaluation of binding affinity of PSMA targeted fluorescent conjugate 22, AAPT-C17201, using flow cytometry analysis. The binding affinity constant of PSMA targeted fluorescent conjugate, AAPT-C17201, to target PSMA was determined in vitro in LNCaP cells by measuring the mean fluorescence intensity per cell for different concentrations of the fluorescent conjugate in triplicate using Fluorescence Activated Cell Sorting (FACS) study.

[3] = molecular target: T2, PSMA protein isolated from prostate cancer cell LNCaP (Homo sapiens, UniProt Q04609); assay: PSMA or GCPII enzyme inhibition (NAALADase) assay, Amplex Glutamate kit; format: biochemical; details: NAAG 30 nM substrate, 60 min, fluorescence
T2 construct: membrane portion of PSMA enzyme was extracted from PSMA+ LNCaP cell line; endogenous in cells; host or cells: LNCaP (membrane pellet after 100,000 x g ultracentrifugation)
T2 sequence (Q04609 whole entry): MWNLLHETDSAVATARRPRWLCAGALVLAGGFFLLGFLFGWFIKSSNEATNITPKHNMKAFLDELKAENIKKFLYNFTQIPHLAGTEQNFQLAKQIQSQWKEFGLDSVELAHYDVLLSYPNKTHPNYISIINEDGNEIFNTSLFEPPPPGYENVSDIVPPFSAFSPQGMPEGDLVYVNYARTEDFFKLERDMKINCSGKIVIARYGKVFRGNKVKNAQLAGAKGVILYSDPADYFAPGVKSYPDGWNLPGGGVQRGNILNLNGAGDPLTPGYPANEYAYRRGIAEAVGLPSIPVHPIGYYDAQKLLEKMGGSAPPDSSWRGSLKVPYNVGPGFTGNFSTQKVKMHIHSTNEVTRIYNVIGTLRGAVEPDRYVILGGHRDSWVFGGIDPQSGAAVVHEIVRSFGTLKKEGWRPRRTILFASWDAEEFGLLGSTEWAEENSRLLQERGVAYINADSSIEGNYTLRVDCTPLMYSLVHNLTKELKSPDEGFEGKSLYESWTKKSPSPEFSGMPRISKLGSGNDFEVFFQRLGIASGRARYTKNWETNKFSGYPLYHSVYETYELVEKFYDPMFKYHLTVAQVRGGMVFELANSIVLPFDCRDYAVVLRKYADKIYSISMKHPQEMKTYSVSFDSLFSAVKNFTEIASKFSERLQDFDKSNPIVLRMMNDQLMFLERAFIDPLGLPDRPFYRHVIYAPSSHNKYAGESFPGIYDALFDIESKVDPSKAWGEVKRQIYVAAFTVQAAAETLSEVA
Description: Briefly, PSMA enzyme was extracted from membrane lysates of LNCaP cell lines after separating the soluble cytosolic PSM′ portion by ultracentrifugation at 100,000×g. The PSMA enzyme (8.3027 ng, 100 μL) free from cytosolic portion was incubated with various concentrations of the AAPT inhibitor (0.1 nM to 1000 nM, 100 μL) in the presence of NAAG (30 nM, 50 μL) for 60 min in a 24-well plate. The amount of glutamic acid released by the hydrolysis of NAAG during competitive inhibition by AAPT inhibitor was measured by incubating each well with a working solution of Amplex Red reagent (100 uM, 50 μL) for 30 min at 37° C. The fluorescence emission from each well, proportional to the amount of released glutamic acid, was measured using Synergy H1 multimode plate reader (BioTek Instruments, Inc., Winooski, VT, USA) at an excitation and emission wavelength of 530 nm and 590 nm respectively.
In the first trial, the enzyme inhibition analysis was performed by incubating PSMA enzyme with increasing concentrations of inhibitor, AAPT.
Fluorescent-based enzyme inhibition assay was performed to determine the IC50 value of the newly synthesized GCPII inhibitors 1-3 (AAPT ligands). Amplex Glutamate kit was purchased from Invitrogen, and a working solution of Amplex Red reagent (5 mL, 100 μM) was prepared. Meanwhile, membrane portion of PSMA enzyme was extracted from PSMA+ LNCaP cell line by following a reported protocol. Briefly LNCaP cells (1 million) were harvested in HEPES buffer (1 mL) and lyzed twice using probe sonicator for 30 s. […] The amount of glutamic acid released by the hydrolysis of NAAG was measured by incubating a working solution of Amplex Red reagent (50 μL, 100 μM) for 30 min at 37° C. The fluorescence emission after the oxidation of Amplex Red reagent was measured by using Synergy H1 multimode plate reader (BioTek Instruments, Inc., Winooski, VT, USA). The excitation wavelength was fixed at 530 nm, and the fluorescence emission is measured at 590 nm. […]

T1 sequence (Q04609 whole entry): as above

Row | SMILES | Kd (PSMA protein [2]) [nM] | also measured
1 | NC(CNC(=O)[C@H](Cc1cccc2ccccc12)NC(=O)[C@H](Cc1cccc2ccccc12)NC(=O)CCCCCCCNC(=O)CCC(NC(=O)CNC(CCC(=O)O)C(=O)O)C(=O)O)C(=O)N[C@@H](CC(=O)O)C(=O)N[C@@H](CS)C(=O)O (stereo partly shown) [Ligand 8g] |  | Kd (PSMA protein [1]): 42 nM
2 | CCN(CC)c1ccc2c(-c3ccccc3C(=O)NCCCC[C@H](NC(=O)CCCCCCCNC(=O)c3ccc(CNC(=O)[C@H](Cc4ccccc4)NC(=O)[C@H](Cc4ccccc4)NC(=O)CCCCCCCNC(=O)CC[C@H](NC(=O)CN[C@@H](CCC(=O)O)C(=O)O)C(=O)O)cc3)C(=O)N[C@@H](CC(=O)O)C(=O)NCCN)c3ccc(=[N+](CC)CC)cc-3oc2c1 [Ligand 25] | 130 | 
3 | O=C(O)CC[C@H](NCC(=O)N[C@@H](CCC(=O)O)C(=O)O)C(=O)O [Ligand 1] |  | IC50 [3]: 38.5 nM and 95 nM and 78 nM
4 | CCN(CC)c1ccc2c(-c3ccccc3C(=O)NCCCC[C@H](NC(=O)CCCCCCCNC(=O)[C@H](Cc3ccccc3)NC(=O)[C@H](Cc3ccccc3)NC(=O)CCCCCCCNC(=O)CC[C@H](NC(=O)CN[C@@H](CCC(=O)O)C(=O)O)C(=O)O)C(=O)N[C@@H](CC(=O)O)C(=O)NCCN)c3ccc(=[N+](CC)CC)cc-3oc2c1 [Ligand 22] | 85 | 
